Measurements from US4709032A, “Isoquinolinesulfonamide derivatives” (Asahi Kasei Kogyo Kabushiki Kaisha, priority 1982, dated 1987).

Columns and labels:
Acute toxicity in mice = conditions: in vivo
Protocol: (§1) The acute toxicity of the N-(2-guanidinoethyl)-5-isoquinolinesulfonamide dihydrochloride was measured by giving male ddY-strain mouse and rat an intravenous administration and an oral administration.
The acute toxicity of the hydrochloric acid salt of other compounds was measured by giving male ddY-strain mice an intravenous administration.

vertebral artery = assay: Effect on blood flow volume in vertebral artery of anesthetized dogs; format: in vivo, dog of mixed breed; conditions: intravenous, 0.5 (mm/Kg [sic])
Protocol: (§2) The effect of the isoquinolinesulfonamide derivatives and the pharmaceutically acceptable acid addition salts of this invention on the vasodilatation of the femoral and vertebral arteries can be measured by anesthetizing a dog of mixed breed weighing 8 to 15 Kg by an intravenous administration of 35 mg/Kg of pentbarbital, providing an acute type probe (a product of Nippon Koden K.K., Japan) with the femoral and vertebral arteries, administering the isoquinolinesulfonamide derivatives and the pharmaceutically acceptable acid addition salts to the femoral vein through a polyethylene tube inserted into the femoral vein side chain and measuring the blood flow volume with an electromagnetic flowmeter (a product of Nippon Koden K.K., Japan, "MFV-1200"). 1 mg/Kg of N-(2-guanidinoethyl)-5-isoquinolinesulfonamide, i.e., Compound (2) was intravenously administered, the increased blood flow volumes in the vertebral artery and in the femoral artery were 95% and 37%. And the duration time is more than 30 minutes.
(§3) The effect on the vasodilatation of the femoral and vertebral arteries was measured by anesthetizing a dog of mixed breed weighing 8 to 15 Kg by an intravenous administration of 35 mg/Kg of pentbarbital, providing an acute type probe (a product of Nippon Koden K.K., Japan) with the femoral and vertebral arteries, administering to the femoral vein through a polyethylene tube inserted into the femoral vein side chain, measuring the blood flow volume with an electromagnetic blood flowmeter (a product of Nippon Koden K.K., Japan, "MFV-1200") and measuring the change of blood pressure.

femoral artery = assay: Effect on blood flow volume in femoral artery of anesthetized dogs; format: in vivo, dog of mixed breed; conditions: intravenous, 0.5 (mm/Kg [sic])
Protocol: as §2, §3

[1] = Hypotensive action (change of blood pressure) in anesthetized dogs; format: in vivo, dog of mixed breed; conditions: intravenous, 0.5 (mm/Kg [sic])
Protocol: as §3

mesenteric artery = assay: Relaxation of rabbit mesenteric artery contracted with KCl (isolated helical strip); format: cell-based; conditions: Oryctolagus cuniculus; concentration for 50% relaxation (complete relaxation = 100%); KCl 15-20 mM contraction; read-out: Relaxation of Mesenteric Artery ED50
Protocol: When, for example, N-(2-guanidinoethyl)-5-isoquinolinesulfonamide, i.e., compound (2) was added and a complete relaxation was designated 100%, the concentration which could bring about a relaxation of 50%, i.e., ED50 was 1 μM.
After a home bred rabbit of a Japanese species weighing about 3 Kg was subjected to bloodletting, resulting in death and then to abdominal incision, the mesenteric artery was taken out, cut into helicoids of 2 mm×25 mm and suspended in a 20 ml organ bath filled with a Krebs-Henseleit solution into which a mixed gas of 95% by volume of O2 and 5% by volume of CO2 was introduced and one end of the artery was connected with an isometric transducer. When a load of 1.5 g was applied to the artery, the contraction and the relaxation of the artery were recorded as a weight on the transducer (a product of Nippon Koden K.K., Japan, "FD Pickup TB-912T"). The relaxation of the mesenteric artery was observed by adding the isoquinolinesulfonamide derivatives and their pharmaceutically acceptable acid addition salts of this invention to the mesenteric artery at the condition of about one half of the maximum contraction with KCl concentration of 15-20 mM. When the complete relaxation of the mesenteric artery was designated 100%, the concentration of the isoquinolinesulfonamide derivatives and their pharmaceutically acceptable acid addition salts which brought about a relaxation of 50% is shown in Table 26.

[2] = system: femoral and vertebral arteries; assay: Duration time of effect in anesthetized dogs (blood flow volume / blood pressure); format: in vivo, dog of mixed breed; conditions: intravenous, 0.5 (mm/Kg [sic])
Protocol: as §2, §3

Acute toxicity in rats = conditions: in vivo, male rat, dihydrochloride
Protocol: as §1

SMILES	LD50 (Acute toxicity in mice; mouse, intravenous administration, male ddY-strain mice, hydrochloric acid salt) [mg/kg]	Increased Blood Flow Volume in Vertebral Artery (vertebral artery) [%]	Increased Blood Flow Volume in Femoral Artery (femoral artery) [%]	Average Decreased Blood Pressure [1] [mmHg]	EC50 (mesenteric artery) [nM]	Duration Time [2] [min]	LD50 (Acute toxicity in mice; intravenous administration, male mouse, dihydrochloride) [mg/kg]	LD50 (Acute toxicity in mice; oral administration, male mouse, dihydrochloride) [mg/kg]	LD50 (Acute toxicity in rats; intravenous administration) [mg/kg]	LD50 (Acute toxicity in rats; oral administration) [mg/kg]
N=C(N)N1CCN(S(=O)(=O)c2cccc3cnccc23)CC1 [Compound 44, 4-Amidino-1-(5-isoquinolinesulfonyl)piperazine]	12	60	29	50	600	> 30	–	–	–	–
Cl.Cl.N=C(N)NCCNS(=O)(=O)c1cccc2cnccc12 [N-(2-guanidinoethyl)-5-isoquinolinesulfonamide dihydrochloride]	–	–	–	–	–	–	59	1480	64	1160
